From US20240182460A1, “ALLOSTERIC CHROMENONE INHIBITORS OF PHOSPHOINOSITIDE 3-KINASE (PI3K) FOR THE TREATMENT OF DISEASE” (PETRA PHARMA CORPORATION, priority 2022, published 2024)

Target: PI3Kα E545K (Homo sapiens, UniProt P42336, E545K)
Assay: PI3Kα E545K mutant in vitro cell based assay, MCF-7 cells
Conditions: MCF-7 cell line, 0% FBS, 3 hours treatment
Source text: PI3K-Alpha Kinase (PI3Kα) Activity: Wild-Type PI3Kα, H1047R Mutant PI3Kα, and E545K Mutant PI3Kα In Vitro Cell Based Assays and Determination of IC50 Values for Inhibitors
The MDA-MB-453 (ATCC-HTB-131) cell line (PI3Kα H1047R) and MCF-7 (ATCC-HTB-22) cell line (PI3Kα E545K), MDA-MB-361 (ATCC-HTB-27) cell line (PI3Kα E545K), and SKBR3 (ATCC-HTB-30) cell line (wild type PI3Kα) were obtained from the American Type Culture Collection (Manassas, VA). MDA-MB-453 cells were maintained in Dulbecco's Modified Eagle Media (DMEM, Gibco 12430) supplemented with 10% Fetal Bovine Serum, heat inactivated (FBS HI, Gibco 10082), 1× non-essential amino acids (NEAA, Gibco 11140), 1 mM sodium pyruvate (Gibco 11360) and 1× Anti-Anti (Gibco 15240). MCF-7 cells were maintained in Minimum Essential Media (MEM) (Gibco 11095) supplemented with 10% Fetal Bovine Serum, heat inactivated (FBS HI, Gibco 10082), 1× non-essential amino acids (NEAA, Gibco 11140), 1 mM sodium pyruvate (Gibco 11360), 1× Anti-Anti (Gibco 15240) and 10 μg/mL human insulin (Sigma I 9278). MDA-MB-361 cells were maintained in Dulbecco's Modified Eagle Media (DMEM, Gibco 12430) supplemented with 20% Fetal Bovine Serum, heat inactivated (FBS HI, Gibco 10082), 1× non-essential amino acids (NEAA, Gibco 11140), 1 mM sodium pyruvate (Gibco 11360) and 1× Anti-Anti (Gibco 15240). SKBR3 cells were maintained in McCoy's 5A (Gibco 16600) supplemented with 10% Fetal Bovine Serum, heat inactivated (FBS HI, Gibco 10082), and 1× Anti-Anti (Gibco 15240). Cultures were maintained in a humidified incubator at 37° C. under 5% CO2/95% air.
For compound testing in 0% FBS, MDA-MB-453, MCF-7 and SKBR3 cells were seeded at a density of 1.5×10^4, 1.0×10^4, and 1.0×10^4 cells, respectively, per well in white 384-well plates in 20 μl of Minimum Essential Media (MEM) assay media with 1×NEAA, 1 mM sodium pyruvate, and 1 μg/mL human insulin (Sigma 19278) (Assay Medium); while MDA-MB-361 cells were seeded at a density of 1.5×10^4 per well in white 384-well plates in 20 μl Assay Medium without insulin. After plating, cells were allowed to attach overnight. Compounds dissolved in 10 mM stock solutions in DMSO were serially diluted 1:3 in DMSO to generate a 10-point dilution series and plated using an acoustic liquid handler system (Echo 550 Series Liquid Handler, Labcyte). A 5× intermediate compound dilution plate in MEM with 1×NEAA and 1 mM sodium pyruvate (150 μM starting compound concentration in 1.5% DMSO) was then prepared. Five μl of the intermediate serially diluted compounds were added to the cell plate to final concentrations ranging from […] in 0.3% DMSO. 0.3% DMSO alone was used to establish the maximum (MAX) signal and GDC-0032 at a final concentration of 1 μM was used as a reference compound for the minimum (MIN) signal. After 3 hours treatment, the medium was removed, and the cells were lysed in 10 μL of 1× SureFire Lysis buffer with shaking for 10 minutes at room temperature. The Acceptor Mix (Reaction Buffer 1+Reaction Buffer 2+Activation Buffer+SureFire Ultra Acceptor Beads) was prepared by diluting Activation buffer 25-fold in combined Reaction Buffer 1 and Reaction Buffer 2.
The Acceptor beads were diluted 50-fold in the combined Reaction Buffers. Five μL of Acceptor Mix was added to each well, the plate was sealed and covered with foil and incubated for 1 hour at room temperature. The Donor Mix (dilution buffer+SureFire Ultra Donor Beads) was prepared by diluting Donor Beads 50-fold in dilution buffer. Five μL of the Donor Mix was added to each well and the plate sealed and covered with foil and incubated for 1-2 hours at room temperature in the dark. The plates were read on a Neo2 plate reader instrument from Biotek using standard AlphaLisa settings.
Compounds were tested in duplicate and the % inhibition at each compound concentration was used to generate two dose response curves. One IC50 was generated using average % inhibition at each compound concentration. […]

Chain of PI3Kα E545K (P42336 whole entry E545K): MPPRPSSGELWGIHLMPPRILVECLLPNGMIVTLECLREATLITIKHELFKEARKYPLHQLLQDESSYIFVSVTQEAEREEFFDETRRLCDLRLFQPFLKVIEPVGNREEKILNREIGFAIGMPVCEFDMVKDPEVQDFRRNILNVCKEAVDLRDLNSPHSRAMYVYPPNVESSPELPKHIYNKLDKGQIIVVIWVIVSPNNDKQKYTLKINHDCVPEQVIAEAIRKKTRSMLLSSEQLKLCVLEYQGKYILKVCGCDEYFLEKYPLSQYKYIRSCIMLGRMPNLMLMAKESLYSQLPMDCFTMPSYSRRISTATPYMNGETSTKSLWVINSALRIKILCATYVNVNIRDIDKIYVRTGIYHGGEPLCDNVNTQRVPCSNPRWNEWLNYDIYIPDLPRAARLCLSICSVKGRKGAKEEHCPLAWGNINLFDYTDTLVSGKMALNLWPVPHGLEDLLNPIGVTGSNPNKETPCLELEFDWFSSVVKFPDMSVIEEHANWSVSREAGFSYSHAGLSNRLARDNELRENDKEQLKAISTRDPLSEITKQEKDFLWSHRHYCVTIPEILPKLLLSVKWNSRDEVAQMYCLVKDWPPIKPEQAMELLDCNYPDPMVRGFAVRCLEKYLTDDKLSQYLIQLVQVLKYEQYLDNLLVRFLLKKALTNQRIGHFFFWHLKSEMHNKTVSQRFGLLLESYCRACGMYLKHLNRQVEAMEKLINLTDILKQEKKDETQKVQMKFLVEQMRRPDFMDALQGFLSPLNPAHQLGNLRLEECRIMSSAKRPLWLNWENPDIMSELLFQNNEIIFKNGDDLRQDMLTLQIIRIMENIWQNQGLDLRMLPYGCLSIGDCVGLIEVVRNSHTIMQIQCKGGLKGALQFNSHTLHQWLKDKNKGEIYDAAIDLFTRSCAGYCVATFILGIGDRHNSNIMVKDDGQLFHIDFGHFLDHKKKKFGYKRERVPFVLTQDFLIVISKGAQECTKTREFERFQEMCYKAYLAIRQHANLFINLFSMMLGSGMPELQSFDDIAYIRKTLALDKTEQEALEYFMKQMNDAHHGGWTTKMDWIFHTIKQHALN
Chain of PI3Kα E545K (P27986 whole entry partner): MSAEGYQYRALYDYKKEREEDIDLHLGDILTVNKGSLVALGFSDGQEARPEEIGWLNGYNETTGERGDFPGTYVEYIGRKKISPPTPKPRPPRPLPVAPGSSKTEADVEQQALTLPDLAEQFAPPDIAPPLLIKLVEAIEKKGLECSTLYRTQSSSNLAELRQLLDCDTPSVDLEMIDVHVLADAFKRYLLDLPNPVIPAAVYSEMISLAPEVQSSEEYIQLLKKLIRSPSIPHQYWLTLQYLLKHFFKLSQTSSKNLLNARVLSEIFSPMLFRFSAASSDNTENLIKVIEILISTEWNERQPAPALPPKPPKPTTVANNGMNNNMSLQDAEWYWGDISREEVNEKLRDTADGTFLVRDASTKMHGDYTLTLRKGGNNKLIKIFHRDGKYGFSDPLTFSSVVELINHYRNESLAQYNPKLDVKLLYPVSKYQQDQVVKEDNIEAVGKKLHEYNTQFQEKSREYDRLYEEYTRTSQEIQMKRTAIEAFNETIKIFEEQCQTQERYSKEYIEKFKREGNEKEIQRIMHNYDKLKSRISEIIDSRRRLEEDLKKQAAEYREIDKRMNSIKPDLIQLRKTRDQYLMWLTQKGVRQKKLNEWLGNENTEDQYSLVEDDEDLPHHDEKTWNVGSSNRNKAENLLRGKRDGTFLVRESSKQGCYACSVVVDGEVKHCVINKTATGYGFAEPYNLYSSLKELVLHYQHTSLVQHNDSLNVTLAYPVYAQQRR

Compound | IC50 [nM]
Cc1cc([C@@H](C)Oc2ccc(Cl)nc2C(N)=O)c2oc(-c3ccc4c(c3)ncn4C)c(C)c(=O)c2c1 [Example 69A, 6-Chloro-3-[(1R)-1-[3,6-dimethyl-2-(1-methylbenzimidazol-5-yl)-4-oxo-chromen-8-yl]ethoxy]pyridine-2-carboxamide] | < 500
Cc1cc([C@@H](C)Oc2ccc(Cl)nc2S(N)(=O)=O)c2oc(C3(CCO)CC3)c(C)c(=O)c2c1 [Example 127C, 6-Chloro-3-[(1R)-1-[2-[1-(2-hydroxyethyl)cyclopropyl]-3,6-dimethyl-4-oxo-chromen-8-yl]ethoxy]pyridine-2-sulfonamide] | < 500
CONS(=O)(=O)c1nc(F)ccc1O[C@H](C)c1cc(C)cc2c(=O)c(C)c(-c3cnn(CC(C)(C)O)c3)oc12 [Example 136C, 6-Fluoro-3-[(1R)-1-[2-[1-(2-hydroxy-2-methyl-propyl)pyrazol-4-yl]-3,6-dimethyl-4-oxo-chromen-8-yl]ethoxy]-N-methoxy-pyridine-2-sulfonamide] | < 500
Cc1cc([C@@H](C)Oc2ccc(Cl)nc2C(N)=O)c2oc(-c3ccc4c(c3)C(=O)N(C)C4)c(C)c(=O)c2c1 [Example 15B, 6-Chloro-3-[(1R)-1-[3,6-dimethyl-2-(2-methyl-3-oxo-isoindolin-5-yl)-4-oxo-chromen-8-yl]ethoxy]pyridine-2-carboxamide] | < 500
Cc1cc([C@@H](C)Oc2ccc(Cl)nc2S(N)(=O)=O)c2oc(-c3ccc4nc(C)cn4c3)c(C)c(=O)c2c1 [Example 120C, 6-Chloro-3-[(1R)-1-[3,6-dimethyl-2-(2-methylimidazo[1,2-a]pyridin-6-yl)-4-oxo-chromen-8-yl]ethoxy]pyridine-2-sulfonamide] | < 500
Cc1cc([C@@H](C)Oc2ccc(Cl)nc2C(N)=O)c2oc(-c3ccc4c(c3)OCCO4)c(C)c(=O)c2c1 [Example 65A, 6-Chloro-3-[(1R)-1-[2-(2,3-dihydro-1,4-benzodioxin-6-yl)-3,6-dimethyl-4-oxo-chromen-8-yl]ethoxy]pyridine-2-carboxamide] | < 500
Cc1cc([C@@H](C)Oc2ccc(Cl)nc2C(N)=O)c2oc(-c3ccc4c(c3)CCNC4=O)c(C)c(=O)c2c1 [Example 116A, 6-Chloro-3-[(1R)-1-[3,6-dimethyl-4-oxo-2-(1-oxo-3,4-dihydro-2H-isoquinolin-6-yl)chromen-8-yl]ethoxy]pyridine-2-carboxamide] | < 500
Cc1cc([C@@H](C)Oc2ccc(Cl)nc2C(N)=O)c2oc(-c3cnn(C)c3)c(C)c(=O)c2c1 [Example 22A, 6-Chloro-3-[(1R)-1-[3,6-dimethyl-2-(1-methylpyrazol-4-yl)-4-oxo-chromen-8-yl]ethoxy]pyridine-2-carboxamide] | < 500
Cc1cc([C@@H](C)Oc2ccc(Cl)nc2S(N)(=O)=O)c2oc(-c3cnoc3)c(C)c(=O)c2c1 [Example 12C, 6-Chloro-3-[(1R)-1-(2-isoxazol-4-yl-3,6-dimethyl-4-oxo-chromen-8-yl)ethoxy]pyridine-2-sulfonamide] | < 500
Cc1cc([C@@H](C)Oc2ccc(Cl)nc2C(N)=O)c2oc(-c3ccc4c(c3)CN(C)C4=O)c(C)c(=O)c2c1 [Example 14B, 6-Chloro-3-[(1R)-1-[3,6-dimethyl-2-(2-methyl-1-oxo-isoindolin-5-yl)-4-oxo-chromen-8-yl]ethoxy]pyridine-2-carboxamide] | < 500
Cc1cc([C@@H](C)Oc2ccc(Cl)nc2C(N)=O)c2oc(-c3ccc4c(c3)CCN(C)C4)c(C)c(=O)c2c1 [Example 71A, 6-Chloro-3-[(1R)-1-[3,6-dimethyl-2-(2-methyl-3,4-dihydro-1H-isoquinolin-6-yl)-4-oxo-chromen-8-yl]ethoxy]pyridine-2-carboxamide] | < 500
Cc1cc([C@@H](C)Oc2ccc(Cl)nc2C(N)=O)c2oc(-c3ccc4nn(C)c(F)c4c3)c(C)c(=O)c2c1 [Example 48C, 6-Chloro-3-[(1R)-1-[2-(3-fluoro-2-methyl-indazol-5-yl)-3,6-dimethyl-4-oxo-chromen-8-yl]ethoxy]pyridine-2-carboxamide] | < 500
